The source of these data is the NIST ThermoML archive (doi:10.1016/j.tca.2014.12.020).

Numbers after ± are expanded uncertainties.

Data set [1] in a line: Molar enthalpy of transition or fusion. The note with it: Crystal; DSC.
Data set [2] in a line: molar heat capacity at constant pressure. The note with it: 101.33 kPa, Small sample (50 mg) DSC.
The conditions of data set [3]: Crystal; DTA.

With `CCCCCCCCCCCCCCCCCC(=O)O` [octadecanoic acid], the “Molar enthalpy of transition or fusion” value in data set [1] amounted to 51.9 ± 1.5 kJ/mol. The “molar heat capacity at constant pressure” value in data set [2] (298.15 K, Crystal) is given as 517.75 ± 23 J/K/mol; in data set [2] (338.15 K, Liquid) it was 648.61 ± 28 J/K/mol.
As to `CCCCCCCCCCCCOS(=O)(=O)[O-].[Na+]` [sodium dodecyl sulfate], the “molar heat capacity at constant pressure” value in data set [2] (298.15 K, Crystal) is reported as 444.11 ± 20 J/K/mol; in data set [2] (338.15 K, Crystal) it was 553.69 ± 23 J/K/mol.
Turning to `CCCCCCCCCCCCCC(=O)O` [tetradecanoic acid], in data set [3], the Normal melting temperature was determined as 53.00 ± 5 °C. The “Molar enthalpy of transition or fusion” value in data set [1] is 44.1 ± 1.1 kJ/mol. The “molar heat capacity at constant pressure” value was 385.95 ± 16 J/K/mol in data set [2] (298.15 K, Crystal) and 509.27 ± 21 J/K/mol in data set [2] (338.15 K, Liquid).
